Laboratory results as given in patent US12139492B2 (Endotarget Inc., priority 2021, dated 2024).
Read-outs that look alike come from different tables or passages of the source.

Assays:
Mino cells = assay: Antiproliferative effect, MTS cell viability assay, Mino cells; type: cell-based; details: Mino mantle cell lymphoma cells, read-out: IC50 (anti-proliferation) Mino cells
Method in brief: (§1)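 Absorbance at 490 nm of formazan, formed by metabolically active cells from MTS tetrazolium, served as the viability measure after a 72 h treatment across a 0.001–10 μM concentration series plus untreated control.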

JeKo-1 cells = assay: Antiproliferative effect, MTS cell viability assay, JeKo-1 cells; type: cell-based; details: JeKo-1 mantle cell lymphoma cells, read-out: IC50 (anti-proliferation) JeKO-1 cells
Method in brief: as §1

BTK = BTK (Homo sapiens, UniProt Q06187); assay: Degradation of BTK protein in Namalwa cells (Western blot; DC50, Dmax); details: for DC50: cell line not given
[1] = read-out: DC50 (BTK degradation), concentration giving 50% reduction of BTK expression level
[2] = read-out: Dmax (BTK degradation)

BTK, sequence (Q06187 whole entry): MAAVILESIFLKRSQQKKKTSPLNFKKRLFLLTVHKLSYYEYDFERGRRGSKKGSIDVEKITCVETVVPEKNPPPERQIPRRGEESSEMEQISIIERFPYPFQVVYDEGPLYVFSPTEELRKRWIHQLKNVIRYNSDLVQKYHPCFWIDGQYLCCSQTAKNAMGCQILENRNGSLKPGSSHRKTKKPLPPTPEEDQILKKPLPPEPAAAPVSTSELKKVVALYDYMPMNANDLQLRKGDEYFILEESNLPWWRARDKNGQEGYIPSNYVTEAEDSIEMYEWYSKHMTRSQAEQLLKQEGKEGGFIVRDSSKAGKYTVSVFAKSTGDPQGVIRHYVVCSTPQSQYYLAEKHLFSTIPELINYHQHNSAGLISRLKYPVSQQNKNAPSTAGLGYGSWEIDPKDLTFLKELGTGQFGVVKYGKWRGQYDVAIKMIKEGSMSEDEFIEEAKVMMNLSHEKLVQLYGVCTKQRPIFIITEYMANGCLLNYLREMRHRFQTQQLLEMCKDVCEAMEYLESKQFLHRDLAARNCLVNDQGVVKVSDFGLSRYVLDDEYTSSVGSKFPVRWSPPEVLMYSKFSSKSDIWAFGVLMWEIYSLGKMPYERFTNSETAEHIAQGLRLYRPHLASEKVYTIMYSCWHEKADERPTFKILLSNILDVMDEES

In the case of `Nc1ncnc2c1c(-c1ccc(Oc3ccccc3)cc1)nn2C1CCN(C2CCN(C(=O)N3CCN(CCCN4CCN(c5ccc6c(c5)C(=O)N(C5CCC(=O)NC5=O)C6=O)CC4)CC3)CC2)CC1` (stereo not shown) [Compound 257, 5-(4-(3-(4-(4-(4-amino-3-(4-phenoxyphenyl)-1H-pyrazolo[3,4-d]pyrimidin-1-yl)-[1,4′-bipiperidine]-1′-carbonyl)piperazin-1-yl)propyl)piperazin-1-yl)-2-(2,6-dioxopiperidin-3-yl)isoindoline-1,3-dione], the IC50 (Mino cells; Homo sapiens, MINO) is reported as greater than 10 µM, the IC50 (JeKo-1 cells; Homo sapiens) is reported as greater than 10 µM and the Dmax (BTK) is reported as greater than 75%. The DC50 (BTK; BTK degradation) was greater than 0.05 µM.

`Nc1ncnc2c1c(-c1ccc(Oc3ccccc3)cc1)nn2C1CCN(C2CCN(CC3CCN(c4ccc5c(c4)C(=O)N([C@@H]4CCC(=O)NC4=O)C5=O)CC3)CC2)CC1` [Compound 213a, (R)-5-(4-((4-(4-amino-3-(4-phenoxyphenyl)-1H-pyrazolo[3,4-d]pyrimidin-1-yl)[1,4′-bipiperidin]-1′-yl)methyl)piperidin-1-yl)-2-(2,6-dioxopiperidin-3-yl)isoindoline-1,3-dione] showed an IC50 (Mino cells; Homo sapiens, MINO) of less than 1 µM, an IC50 (JeKo-1 cells; Homo sapiens) of less than 1 µM and a Dmax (BTK) greater than 90%. The DC50 (BTK; BTK degradation) was less than 0.01 µM.

`NC(=O)c1c(-c2ccc(Oc3ccccc3)cc2)nn2c1NCCC2C1CCN(C2CCN(C(=O)N3CCC(CN4CCC(c5ccc6c(c5)CN(C5CCC(=O)NC5=O)C6=O)CC4)CC3)CC2)CC1` (stereo not shown) [Compound 356, 7-(1′-(4-((4-(2-(2,6-dioxopiperidin-3-yl)-1-oxoisoindolin-5-yl)piperidin-1-yl)methyl)piperidine-1-carbonyl)-[1,4′-bipiperidin]-4-yl)-2-(4-phenoxyphenyl)-4,5,6,7-tetrahydropyrazolo[1,5-a]pyrimidine-3-carboxamide] showed an IC50 (Mino cells; Homo sapiens, MINO) of less than 1 µM, an IC50 (JeKo-1 cells; Homo sapiens) of 1 to 10 µM and a Dmax (BTK) greater than 90%. The DC50 (BTK; BTK degradation) was less than 0.01 µM.

`Nc1ncnc2c1c(-c1ccc(Oc3ccccc3)cc1)nn2C1CCN(C(=O)N2CC(N3CCN(c4ccc5c(c4)CN([C@@H]4CCC(=O)NC4=O)C5=O)CC3)C2)CC1` [Compound 486, (R)-3-(5-(4-(1-(4-(4-amino-3-(4-phenoxyphenyl)-1H-pyrazolo[3,4-d]pyrimidin-1-yl)piperidine-1-carbonyl)azetidin-3-yl)piperazin-1-yl)-1-oxoisoindolin-2-yl)piperidine-2,6-dione] was tested, and the IC50 (Mino cells; Homo sapiens, MINO) was less than 1 µM, the IC50 (JeKo-1 cells; Homo sapiens) was less than 1 µM and the DC50 (BTK; [1]) was less than 0.01 µM. It also gave a Dmax (BTK; [2]) greater than 90%.

`NC(=O)c1c(-c2ccc(Oc3ccccc3)cc2)nn2c1NCCC2C1CCN(CC2CCN(C(=O)N3CCN(C4CCN(c5ccc6c(c5)C(=O)N(C5CCC(=O)NC5=O)C6=O)CC4)CC3)CC2)CC1` (stereo not shown) [Compound 361, 7-(1-((1-(4-(1-(2-(2,6-dioxopiperidin-3-yl)-1,3-dioxoisoindolin-5-yl)piperidin-4-yl)piperazine-1-carbonyl)piperidin-4-yl)methyl)piperidin-4-yl)-2-(4-phenoxyphenyl)-4,5,6,7-tetrahydropyrazolo[1,5-a]pyrimidine-3-carboxamide] gave an IC50 (Mino cells; Homo sapiens, MINO) of 1 to 10 µM, an IC50 (JeKo-1 cells; Homo sapiens) of 1 to 10 µM and a Dmax (BTK) greater than 90%. For the same molecule, the DC50 (BTK; BTK degradation) was 0.01 to 0.05 µM.

Molecule `Nc1ncnc2c1c(-c1ccc(Oc3ccccc3)cc1)nn2C1CCN(C2CCN(C(=O)N3CCN(CC4CCN(c5ccc6c(c5)CN(C5CCC(=O)NC5=O)C6=O)CC4)CC3)CC2)CC1` (stereo not shown) [Compound 242, 3-(5-(4-((4-(4-(4-amino-3-(4-phenoxyphenyl)-1H-pyrazolo[3,4-d]pyrimidin-1-yl)-[1,4′-bipiperidine]-1′-carbonyl)piperazin-1-yl)methyl)piperidin-1-yl)-1-oxoisoindolin-2-yl)piperidine-2,6-dione] has an IC50 (Mino cells; Homo sapiens, MINO) of less than 1 µM, an IC50 (JeKo-1 cells; Homo sapiens) of 1 to 10 µM and a Dmax (BTK) greater than 90%. For the same molecule, the DC50 (BTK; BTK degradation) was less than 0.01 µM.

With `NC(=O)c1c(-c2ccc(Oc3ccccc3)cc2)nn2c1NCCC2C1CCN(C(=O)N2CCC(CN3CCC(c4ccc5c(c4)C(=O)N(C4CCC(=O)NC4=O)C5=O)CC3)CC2)CC1` (stereo not shown) [Compound 279, 7-(1-(4-((4-(2-(2,6-dioxopiperidin-3-yl)-1,3-dioxoisoindolin-5-yl)piperidin-1-yl)methyl)piperidine-1-carbonyl)piperidin-4-yl)-2-(4-phenoxyphenyl)-4,5,6,7-tetrahydropyrazolo[1,5-a]pyrimidine-3-carboxamide] the IC50 (Mino cells; Homo sapiens, MINO) was 1 to 10 µM, the IC50 (JeKo-1 cells; Homo sapiens) was 1 to 10 µM and the Dmax (BTK) was greater than 90%. It also gave a DC50 (BTK; BTK degradation) of 0.01 to 0.05 µM.

`Nc1ncnc2c1c(-c1ccc(Oc3ccccc3)cc1)nn2C1CCN(C2CCN(CCN3CCC(c4ccc(N5CCC(=O)NC5=O)cc4)CC3)C2)CC1` (stereo not shown) [Compound 574, 1-(4-(1-(2-(3-(4-(4-amino-3-(4-phenoxyphenyl)-1H-pyrazolo[3,4-d]pyrimidin-1-yl)piperidin-1-yl)pyrrolidin-1-yl)ethyl)piperidin-4-yl)phenyl)dihydropyrimidine-2,4(1H,3H)-dione] was tested, and the IC50 (Mino cells; Homo sapiens, MINO) was 1 to 10 µM, the IC50 (JeKo-1 cells; Homo sapiens) was 1 to 10 µM and the DC50 (BTK; [1]) was 0.01 to 0.05 µM. For the same molecule, the Dmax (BTK; [2]) was greater than 90%.

`NC(=O)c1c(-c2ccc(Oc3ccccc3)cc2)nn2c1NCCC2C1CCN(C(=O)N2CCN(CCC3CCN(c4ccc5c(c4)CN(C4CCC(=O)NC4=O)C5=O)CC3)CC2)CC1` (stereo not shown) [Compound 284, 7-(1-(4-(2-(1-(2-(2,6-dioxopiperidin-3-yl)-1-oxoisoindolin-5-yl)piperidin-4-yl)ethyl)piperazine-1-carbonyl)piperidin-4-yl)-2-(4-phenoxyphenyl)-4,5,6,7-tetrahydropyrazolo[1,5-a]pyrimidine-3-carboxamide] showed an IC50 (Mino cells; Homo sapiens, MINO) of 1 to 10 µM, an IC50 (JeKo-1 cells; Homo sapiens) of 1 to 10 µM and a Dmax (BTK) greater than 75%. The DC50 (BTK; BTK degradation) was 0.01 to 0.05 µM.

With `NC(=O)c1c(-c2ccc(Oc3ccccc3)cc2)nn2c1NCC[C@H]2C1CCN(C2CCN(CCC3CCN(c4ccc5c(c4)C(=O)N(C4CCC(=O)NC4=O)C5=O)CC3)CC2)CC1` (stereo partly shown) [Compound 325] the IC50 (Mino cells; Homo sapiens, MINO) was 1 to 10 µM, the IC50 (JeKo-1 cells; Homo sapiens) was 1 to 10 µM and the Dmax (BTK) was greater than 90%. For the same molecule, the DC50 (BTK; BTK degradation) was 0.01 to 0.05 µM.

Work on `Nc1ncnc2c1c(-c1ccc(Oc3ccccc3)cc1)nn2C1CCN(C2CCN(CCN3CCN(c4ccc(NC5CCC(=O)NC5=O)cc4)CC3)CC2)CC1` (stereo not shown) [Compound 581, 3-((4-(4-(2-(4-(4-amino-3-(4-phenoxyphenyl)-1H-pyrazolo[3,4-d]pyrimidin-1-yl)-[1,4′-bipiperidin]-1′-yl)ethyl)piperazin-1-yl)phenyl)amino)piperidine-2,6-dione] yielded an IC50 (Mino cells; Homo sapiens, MINO) of less than 1 µM, an IC50 (JeKo-1 cells; Homo sapiens) of less than 1 µM and a DC50 (BTK; [1]) of less than 0.01 µM. For the same molecule, the Dmax (BTK; [2]) was greater than 90%.

Molecule `Nc1ncnc2c1c(-c1ccc(Oc3ccccc3)cc1)nn2C1CCN(CCN2CCC(CN3CCC(c4ccc(N5CCC(=O)NC5=O)cc4)CC3)C2)CC1` (stereo not shown) [Compound 548, 1-(4-(1-((1-(2-(4-(4-amino-3-(4-phenoxyphenyl)-1H-pyrazolo[3,4-d]pyrimidin-1-yl)piperidin-1-yl)ethyl)pyrrolidin-3-yl)methyl)piperidin-4-yl)phenyl)dihydropyrimidine-2,4(1H,3H)-dione] has an IC50 (Mino cells; Homo sapiens, MINO) of less than 1 µM, an IC50 (JeKo-1 cells; Homo sapiens) of less than 1 µM and a DC50 (BTK; [1]) of less than 0.01 µM. For the same molecule, the Dmax (BTK; [2]) was greater than 75%.

`NC(=O)c1c(-c2ccc(Oc3ccccc3)cc2)nn2c1NCCC2C1CCN(C(=O)N2CCC(CN3CCN(c4ccc5c(c4)C(=O)N(C4CCC(=O)NC4=O)C5=O)CC3)CC2)CC1` (stereo not shown) [Compound 275, 7-(1-(4-((4-(2-(2,6-dioxopiperidin-3-yl)-1,3-dioxoisoindolin-5-yl)piperazin-1-yl)methyl)piperidine-1-carbonyl)piperidin-4-yl)-2-(4-phenoxyphenyl)-4,5,6,7-tetrahydropyrazolo[1,5-a]pyrimidine-3-carboxamide] was tested, and the IC50 (Mino cells; Homo sapiens, MINO) was 1 to 10 µM, the IC50 (JeKo-1 cells; Homo sapiens) was 1 to 10 µM and the Dmax (BTK) was greater than 90%. It also gave a DC50 (BTK; BTK degradation) of less than 0.01 µM.

For `NC(=O)c1c(-c2ccc(Oc3ccccc3)cc2)nn2c1NCCC2C1CCN(CC2CCN(C(=O)N3CCC(CN4CCN(c5ccc6c(c5)CN(C5CCC(=O)NC5=O)C6=O)CC4)CC3)CC2)CC1` (stereo not shown) [Compound 370, 7-(1-((1-(4-((4-(2-(2,6-dioxopiperidin-3-yl)-1-oxoisoindolin-5-yl)piperazin-1-yl)methyl)piperidine-1-carbonyl)piperidin-4-yl)methyl)piperidin-4-yl)-2-(4-phenoxyphenyl)-4,5,6,7-tetrahydropyrazolo[1,5-a]pyrimidine-3-carboxamide], the IC50 (Mino cells; Homo sapiens, MINO) was less than 1 µM, the IC50 (JeKo-1 cells; Homo sapiens) was less than 1 µM and the Dmax (BTK) was greater than 90%. It also gave a DC50 (BTK; BTK degradation) of less than 0.01 µM.

Work on `Nc1ncnc2c1c(-c1ccc(Oc3ccccc3)cc1)nn2C1CCN(C2CCN(CC3CCN(c4ccc5c(c4)C(=O)N(C4CCC(=O)NC4=O)C5=O)CC3)CC2)CC1` (stereo in doubt) [Compound 213b, (S)-5-(4-((4-(4-amino-3-(4-phenoxyphenyl)-1H-pyrazolo[3,4-d]pyrimidin-1-yl)-[1,4′-bipiperidin]-1′-yl)methyl)piperidin-1-yl)-2-(2,6-dioxopiperidin-3-yl)isoindoline-1,3-dione] yielded an IC50 (Mino cells) of less than 1 µM, an IC50 (JeKo-1 cells) of less than 1 µM and a DC50 (BTK; BTK degradation) of less than 0.01 µM.

In the case of `Nc1ncnc2c1c(-c1ccc(Oc3ccccc3)cc1)nn2C1CCN(C2CCN(CC3CCN(c4ccc5c(c4)CN(C4CCC(=O)NC4=O)C5=O)CC3)C2)CC1` (stereo not shown) [Compound 450, 3-(5-(4-((3-(4-(4-amino-3-(4-phenoxyphenyl)-1H-pyrazolo[3,4-d]pyrimidin-1-yl)piperidin-1-yl)pyrrolidin-1-yl)methyl)piperidin-1-yl)-1-oxoisoindolin-2-yl)piperidine-2,6-dione], the IC50 (Mino cells; Homo sapiens, MINO) is reported as 1 to 10 µM, the IC50 (JeKo-1 cells; Homo sapiens) is reported as 1 to 10 µM and the DC50 (BTK; [1]) is reported as 0.01 to 0.05 µM. It also gave a Dmax (BTK; [2]) greater than 75%.

In the case of `NC(=O)c1c(-c2ccc(Oc3ccccc3)cc2)nn2c1NCCC2C1CCN(C2CCN(CCN3CCN(c4ccc5c(c4)C(=O)N(C4CCC(=O)NC4=O)C5=O)CC3)CC2)CC1` (stereo not shown) [Compound 307, 7-(1′-(2-(4-(2-(2,6-dioxopiperidin-3-yl)-1,3-dioxoisoindolin-5-yl)piperazin-1-yl)ethyl)-[1,4′-bipiperidin]-4-yl)-2-(4-phenoxyphenyl)-4,5,6,7-tetrahydropyrazolo[1,5-a]pyrimidine-3-carboxamide], the IC50 (Mino cells; Homo sapiens, MINO) is reported as 1 to 10 µM, the IC50 (JeKo-1 cells; Homo sapiens) is reported as greater than 10 µM and the Dmax (BTK) is reported as greater than 75%. It also gave a DC50 (BTK; BTK degradation) greater than 0.05 µM.
